# PubChem BioAssay (NCI)
#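 Each compound was tested at five concentrations against cells in 96-well plates for 48 hours. TGI denotes the concentration required for complete inhibition of growth.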
# Experiments:
# Assay in all cases: NCI-60 cell line screen, 48 h
# [1] = tested on: 786-0 renal
# [2] = tested on: A498 renal
# [3] = tested on: A549 NSCLC
# [4] = tested on: ACHN renal
# [5] = tested on: BT-549 breast
# [6] = tested on: CCRF-CEM leukemia
# [7] = tested on: COLO 205 colon
# [8] = tested on: DU-145 prostate
# [9] = tested on: EKVX NSCLC
# [10] = tested on: HCC-2998 colon
# [11] = tested on: HCT-116 colon
# [12] = tested on: HCT-15 colon
# [13] = tested on: HL-60(TB) leukemia
# [14] = tested on: HOP-62 NSCLC
# [15] = tested on: HOP-92 NSCLC
# [16] = tested on: HS 578T breast
# [17] = tested on: HT29 colon
# [18] = tested on: IGROV1 ovarian
# [19] = tested on: K-562 leukemia
# [20] = tested on: KM12 colon
# [21] = tested on: LOX IMVI melanoma
# [22] = tested on: M14 melanoma
# [23] = tested on: MALME-3M melanoma
# [24] = tested on: MCF7 breast
# [25] = tested on: MDA-MB-231 breast
# [26] = tested on: MDA-MB-435
# [27] = tested on: MDA-N
# [28] = tested on: MOLT-4 leukemia
# [29] = tested on: NCI-H226 lung
# [30] = tested on: NCI-H23 lung
# [31] = tested on: NCI-H460 lung
# [32] = tested on: NCI-H522 lung
# [33] = tested on: NCI/ADR-RES ovarian
# [34] = tested on: OVCAR-3 ovarian
# [35] = tested on: OVCAR-4 ovarian
# [36] = tested on: OVCAR-5 ovarian
# [37] = tested on: OVCAR-8 ovarian
# [38] = tested on: PC-3 prostate
# [39] = tested on: RPMI-8226 leukemia
# [40] = tested on: RXF 393 renal
# [41] = tested on: SF-268 CNS
# [42] = tested on: SF-295 CNS
# [43] = tested on: SF-539 CNS
# [44] = tested on: SK-MEL-2 melanoma
# [45] = tested on: SK-MEL-28 melanoma
# [46] = tested on: SK-MEL-5 melanoma
# [47] = tested on: SK-OV-3 ovarian
# [48] = tested on: SN12C renal
# [49] = tested on: SNB-19 CNS
# [50] = tested on: SNB-75 CNS
# [51] = tested on: SW-620 colon
# [52] = tested on: T-47D breast
# [53] = tested on: TK-10 renal
# [54] = tested on: U251 CNS
# [55] = tested on: UACC-257 melanoma
# [56] = tested on: UACC-62 melanoma
# [57] = tested on: UO-31 renal
# [58] = tested on: CAKI-1 renal
compound,measurement,setting,value
Cc1nc(Cl)c(Cl)c(Cl)n1,TGI,[1],1.47 µM
same,TGI,[2],4.81 µM
same,TGI,[3],3.25 µM
same,TGI,[4],1.1 µM
same,TGI,[5],0.482 µM
same,TGI,[6],0.0333 µM
same,TGI,[7],1.42 µM
same,TGI,[8],9.24 µM
same,TGI,[9],1.17 µM
same,TGI,[10],7.04 µM
same,TGI,[11],0.24 µM
same,TGI,[12],1.96 µM
same,TGI,[13],0.0553 µM
same,TGI,[14],0.974 µM
same,TGI,[15],0.849 µM
same,TGI,[16],4.49 µM
same,TGI,[17],0.442 µM
same,TGI,[18],0.344 µM
same,TGI,[19],0.0358 µM
same,TGI,[20],1 µM
same,TGI,[21],0.585 µM
same,TGI,[22],0.48 µM
same,TGI,[23],0.573 µM
same,TGI,[24],1.91 µM
same,TGI,[25],0.656 µM
same,TGI,[26],1.71 µM
same,TGI,[27],3.15 µM
same,TGI,[28],< 0.025 µM
same,TGI,[29],6.04 µM
same,TGI,[30],2.1 µM
same,TGI,[31],6.33 µM
same,TGI,[32],3.88 µM
same,TGI,[33],15.3 µM
same,TGI,[34],0.281 µM
same,TGI,[35],0.097 µM
same,TGI,[36],3.03 µM
same,TGI,[37],2 µM
same,TGI,[38],0.988 µM
same,TGI,[39],0.203 µM
same,TGI,[40],1.85 µM
same,TGI,[41],4.27 µM
same,TGI,[42],3.58 µM
same,TGI,[43],2.82 µM
same,TGI,[44],2.73 µM
same,TGI,[45],1.2 µM
same,TGI,[46],1.97 µM
same,TGI,[47],7.53 µM
same,TGI,[48],1.26 µM
same,TGI,[49],2.74 µM
same,TGI,[50],2.7 µM
same,TGI,[51],0.149 µM
same,TGI,[52],7.71 µM
same,TGI,[53],3.51 µM
same,TGI,[54],4.07 µM
same,TGI,[55],1.62 µM
same,TGI,[56],1.46 µM
same,TGI,[57],0.208 µM
Nc1nc(N)c(C2=CCN(Cc3ccccc3)CC2)c(=O)[nH]1,TGI,[1],> 100 µM
same,TGI,[2],> 100 µM
same,TGI,[3],> 100 µM
same,TGI,[4],> 100 µM
same,TGI,[5],> 100 µM
same,TGI,[58],> 100 µM
same,TGI,[6],> 100 µM
same,TGI,[7],> 100 µM
same,TGI,[8],> 100 µM
same,TGI,[9],> 100 µM
same,TGI,[11],> 100 µM
same,TGI,[12],> 100 µM
same,TGI,[13],> 100 µM
same,TGI,[14],> 100 µM
same,TGI,[15],> 100 µM
same,TGI,[16],> 100 µM
same,TGI,[17],> 100 µM
same,TGI,[18],> 100 µM
same,TGI,[19],> 100 µM
same,TGI,[20],> 100 µM
same,TGI,[22],> 100 µM
same,TGI,[23],> 100 µM
same,TGI,[24],> 100 µM
same,TGI,[25],> 100 µM
same,TGI,[26],> 100 µM
same,TGI,[27],> 100 µM
same,TGI,[28],> 100 µM
same,TGI,[29],> 100 µM
same,TGI,[30],> 100 µM
same,TGI,[31],> 100 µM
same,TGI,[32],> 100 µM
same,TGI,[33],> 100 µM
same,TGI,[34],> 100 µM
same,TGI,[35],> 100 µM
same,TGI,[36],> 100 µM
same,TGI,[37],> 100 µM
same,TGI,[38],> 100 µM
same,TGI,[39],> 100 µM
same,TGI,[40],> 100 µM
same,TGI,[41],> 100 µM
same,TGI,[42],> 100 µM
same,TGI,[43],> 100 µM
same,TGI,[44],> 100 µM
same,TGI,[45],> 100 µM
same,TGI,[46],> 100 µM
same,TGI,[47],> 100 µM
same,TGI,[48],> 100 µM
same,TGI,[49],> 100 µM
same,TGI,[50],> 100 µM
same,TGI,[51],> 100 µM
same,TGI,[52],> 100 µM
same,TGI,[54],> 100 µM
same,TGI,[55],> 100 µM
same,TGI,[56],> 100 µM
same,TGI,[57],> 100 µM
